Reference: patent US9410100B2, “Tritylated ethers” (ANGUS Chemical Company, priority 2012, dated 2016)

Experiments:
[1] = Solubility studies of functionalized tritylated phenol ethers in solvents; format: physicochemical
Procedure: The solubility properties of functionalized tritylated phenol ethers were determined by mixing 0.1 gram samples of sample in 0.9 grams of solvent. The mixtures were warmed at 60° C. for a few minutes to make homogeneous solutions. The solutions were cooled back to room temperature, and then they were placed into a freezer at −10° C. The solutions were checked daily to see if crystallization had occurred.

**Q.** Which “Solubility at RT” value ([1]; 10 wt % in 1-Octanol, cooled to room temperature) does the source give for `OCCCCCCOc1ccc(C(c2ccccc2)(c2ccccc2)c2ccccc2)cc1OCCCCCCO` [Ex. 4, 6,6′-((4-trityl-1,2-phenylene)bis(oxy))bis(hexan-1-ol)] here?
**A.** Its value is “soluble”.

**Q.** What about the “Solubility at 60 C.” value ([1]; 10 wt % in 1-Octanol, warmed at 60 C) of the same molecule?
**A.** The value was “soluble”.

**Q.** What about the “Solubility at RT” value ([1]; 10 wt % in AROMATIC 200, cooled to room temperature) of the same molecule?
**A.** The value was “insoluble”.

**Q.** What about the “Solubility at 60 C.” value ([1]; 10 wt % in AROMATIC 200, warmed at 60 C) of the same molecule?
**A.** Its value is “insoluble”.

**Q.** What about the “Solubility at RT” value ([1]; 10 wt % in DMAc, cooled to room temperature) of the same molecule?
**A.** Its value is “soluble”.

**Q.** What about the “Solubility at 60 C.” value ([1]; 10 wt % in DMAc, warmed at 60 C) of the same molecule?
**A.** Its value is “soluble”.

**Q.** What about the “Solubility at RT” value ([1]; 10 wt % in DPGME, cooled to room temperature) of the same molecule?
**A.** The value was “soluble”.

**Q.** What about the “Solubility at 60 C.” value ([1]; 10 wt % in DPGME, warmed at 60 C) of the same molecule?
**A.** The value was “soluble”.

**Q.** What about the “Solubility at RT” value ([1]; 10 wt % in NMP, cooled to room temperature) of the same molecule?
**A.** Its value is “soluble”.

**Q.** And the “Solubility at 60 C.” value ([1]; 10 wt % in NMP, warmed at 60 C)?
**A.** Its value is “soluble”.

**Q.** What about the “Solubility at RT” value ([1]; 10 wt % in Tetralin, cooled to room temperature) of the same molecule?
**A.** The value was “insoluble”.

**Q.** What about the “Solubility at 60 C.” value ([1]; 10 wt % in Tetralin, warmed at 60 C) of the same molecule?
**A.** Its value is “soluble”.

**Q.** What about the melting point of the same molecule?
**A.** Its melting point is 81 to 84 °C.

**Q.** Which melting point does the source give for `OCCCCCCOc1ccc(C(c2ccccc2)(c2ccccc2)c2ccccc2)cc1` [compound 1, 6-(4-Tritylphenoxy)hexan-1-ol] here?
**A.** The melting point was 158 to 161 °C.
